{"source": "patent US20090239748A1", "about": "“Fungicidal Mixtures Based on 2,5-Disubstituted N-Biphenylpyrazolcarboxamides” (BASF Aktiengesellschaft, priority 2005, published 2009)", "key": {"Puccinia recondita": {"system": "Puccinia recondita", "experiment": "Protective activity against Puccinia recondita on wheat (brown rust of wheat)", "type": "in vivo", "procedure": "(§1) The active compounds, separately or jointly, were prepared as a stock solution comprising 25 mg of active compound which was made up to 10 ml using a mixture of acetone and/or dimethyl sulfoxide and the emulsifier Uniperol® EL (wetting agent having an emulsifying and dispersing action based on ethoxylated alkylphenols) in a ratio by volume of solvent/emulsifier of 99:1. The mixture was then made up to 100 ml with water. This stock solution was diluted with the solvent/emulsifier/water mixture described to give the concentration of active compound stated below.\n(§2) Alternatively, the active compounds epoxiconazole and pyraclostrobin were used as a commercial formulation and diluted with water to the stated active compound concentrations.\n(§3) The visually determined percentages of infected leaf areas were converted into efficacies in % of the untreated control.\n(§4) The efficacy (E) is calculated as follows using Abbot's formula: […]\nα corresponds to the fungicidal infection of the treated plants in % and β corresponds to the fungicidal infection of the untreated (control) plants in %\nAn efficacy of 0 means that the infection level of the treated plants corresponds to that of the untreated control plants; an efficacy of 100 means that the treated plants were not infected.\n(§5) The expected efficacies of active compound mixtures were determined using Colby's formula [R. S. Colby, “Calculating synergistic and antagonistic responses of herbicide combinations”, Weeds 15, 20-22 (1967)] and compared with the observed efficacies.\n(§6) E=x+y−x·y/100 • E expected efficacy, expressed in % of the untreated control, when using the mixture of the active compounds A and B at the concentrations a and b; • x efficacy, expressed in % of the untreated control, when using the active compound A at the concentration a; • y efficacy, expressed in % of the untreated control, when using the active compound B at the concentration b.\nLeaves of potted wheat seedlings of the cultivar “Kanzler” were sprayed to runoff point with an aqueous suspension having the active compound concentration stated below. The next day, the treated plants were inoculated with a spore suspension of brown rust of wheat (Puccinia recondita). The plants were then placed in a chamber with high atmospheric humidity (90 to 95%) at 20 to 22° C. for 24 hours. During this time, the spores germinated and the germ tubes penetrated into the leaf tissue. The next day, the test plants were returned to the greenhouse and cultivated at temperatures between 20 and 22° C. and at 65 to 70% relative atmospheric humidity for a further 7 days. The extent of the rust fungus development on the leaves was then determined visually."}, "Botrytis cinerea": {"system": "Botrytis cinerea", "experiment": "Activity against gray mold on bell pepper leaves caused by Botrytis cinerea, 1 day protective application", "type": "in vivo", "conditions": "sprayed 1 day before inoculation, read after 5 days", "procedure": "as §1, §3, §4\n(§7) The expected efficacies of active compound mixtures were determined using Colby's formula [R. S. Colby, “Calculating synergistic and antagonistic responses of herbicide combinations”, Weeds 15, 20-22 (1967)] and compared with the observed efficacies. […]\nBell pepper seedlings of the cultivar “Neusiedler Ideal Elite” were, after 2-3 leaves were well developed, sprayed to runoff point with an aqueous suspension having the active compound concentration stated below. […] After 5 days, the extent of the fungal infection on the leaves could be determined visually in %."}, "Phakopsora pachyrhizi": {"system": "Phakopsora pachyrhizi", "experiment": "Curative activity against soybean rust caused by Phakopsora pachyrhizi", "type": "in vivo", "conditions": "0.25 mg/l, curative (sprayed 2 days after inoculation), 14 days", "procedure": "as §1, §2, §3, §4, §7\nLeaves of potted soybean seedlings of the cultivar “Oxford” were inoculated with a spore suspension of soybean rust (Phakopsora pachyrhizi). […] The extent of the rust fungus development on the leaves was then determined."}, "Septoria tritici": {"system": "Septoria tritici", "experiment": "Activity against the Septoria leaf spot pathogen Septoria tritici in the microtiter test", "type": "cell-based", "conditions": "microtiter plate, 405 nm, day 7", "procedure": "as §5, §6\nFor this test, the active compounds were formulated separately as a stock solution having a concentration of 10 000 ppm in dimethyl sulfoxide.\nThe stock solution was mixed according to the ratio, pipetted into a microtiter plate (MTP) and diluted with an aqueous malt-based fungus nutrient medium to the stated active compound concentration. An aqueous spore suspension of Septoria tritici was then added. […] Using an absorbtion photometer, the MTPs were measured at 405 nm on day 7 after the inoculation.\nThe measured parameters were compared to the growth of the active compound-free control variant (100%) and the fungus- and active compound-free blank value to determine the relative growth in % of the pathogens in the individual active compounds."}, "[1]": {"system": "Pyrenophora [syn. Drechslera] teres", "experiment": "Activity against net blotch of barley caused by Pyrenophora teres, 1 day protective application", "type": "in vivo", "conditions": "0.25 mg/l, read after 6 days", "procedure": "The active compounds, separately or jointly, were prepared as a stock solution comprising 25 mg of active compound which was made up to 10 ml using a mixture of acetone and/or dimethyl sulfoxide and the emulsifier Uniperol® EL (wetting agent having an emulsifying and dispersing action based on ethoxylated alkylphenols) in a ratio by volume of solvent/emulsifier of 99:1. The mixture was then made up to 100 ml with water. This stock solution was diluted with the solvent/emulsifier/water mixture described to give the concentration of active compound stated below. […]\nas §3, §4, §7\nLeaves of potted barley seedlings were sprayed to runoff point with an aqueous suspension having the active compound concentration stated below. […] After 6 days, the extent of the development of the disease was determined visually in % infection of the entire leaf area."}}}
{"smiles": "Fc1ccc([C@]2(Cn3cncn3)O[C@H]2c2ccccc2Cl)cc1", "note": "(racemic) [epoxiconazole, (2RS,3SR)-1-[3-(2-chlorophenyl)-2,3-epoxy-2-(4-fluorophenyl)propyl]-1H-1,2,4-triazole, reference compound]", "values": [{"measurement": "Observed effect (% infection)", "setting": "Puccinia recondita; 0.25 mg/l", "value": 5, "unit": "%"}]}
{"smiles": "CC1CCN(c2c(-c3c(F)cc(F)cc3F)c(Cl)nc3ncnn23)CC1", "note": "[5-chloro-7-(4-methylpiperidin-1-yl)-6-(2,4,6-trifluorophenyl)-[1,2,4]triazolo[1,5-a]-pyrimidine, reference compound]", "values": [{"measurement": "Observed effect (% infection)", "setting": "Botrytis cinerea; 4 mg/l", "value": 40, "unit": "%"}]}
{"smiles": "Cn1cc(C(=O)Nc2ccccc2-c2cc(F)ccc2F)c(C(F)(F)F)n1", "note": "[No. I.1, N-(ortho-(2,5-difluorophenyl)phenyl)-1-methyl-3-trifluoromethylpyrazole-4-carboxamide]", "values": [{"measurement": "Observed effect (% infection)", "setting": "Botrytis cinerea; 1 mg/l", "value": 0, "unit": "%"}, {"measurement": "Observed effect (% infection)", "setting": "Puccinia recondita; 1 mg/l", "value": 5, "unit": "%"}, {"measurement": "Observed effect (% infection)", "setting": "Phakopsora pachyrhizi", "value": 29, "unit": "%"}, {"measurement": "Observed effect (% infection)", "setting": "Septoria tritici; 1 mg/l", "value": 0, "unit": "%"}]}
{"smiles": "Cn1cc(C(=O)Nc2ccccc2-c2cc(F)ccc2F)c(C(F)F)n1", "note": "[No. I.2, N-(2′,5′-difluorobiphenyl-2-yl)-1-methyl-3-difluoromethyl-1H-pyrazole-4-carboxamide]", "values": [{"measurement": "Observed effect (% infection)", "setting": "Puccinia recondita; 1 mg/l", "value": 52, "unit": "%"}, {"measurement": "Observed effect (% infection)", "setting": "[1]", "value": 0, "unit": "%"}, {"measurement": "melting point", "value": "139 to 141", "unit": "°C"}]}
{"smiles": "Cn1cc(C(=O)Nc2ccccc2-c2cc(Cl)ccc2Cl)c(C(F)F)n1", "note": "[No. I.4, N-(2′,5′-dichlorobiphenyl-2-yl)-1-methyl-3-difluoromethyl-1H-pyrazole-4-carboxamide]", "values": [{"measurement": "melting point", "value": "130 to 132", "unit": "°C"}]}
{"smiles": "Cn1cc(C(=O)Nc2ccccc2-c2cc(Cl)ccc2Cl)c(C(F)(F)F)n1", "note": "[No. I.5, N-(2′,5′-dichlorobiphenyl-2-yl)-1-methyl-3-trifluoromethyl-1H-pyrazole-4-carboxamide]", "values": [{"measurement": "melting point", "value": "131 to 135", "unit": "°C"}]}
{"smiles": "COc1ccc(C(=CC(=O)N2CCOCC2)c2ccc(Cl)cc2)cc1OC", "note": "[dimethomorph, 3-(4-chlorophenyl)-3-(3,4-dimethoxyphenyl)-1-morpholin-4-yl-propenone, reference compound]", "values": [{"measurement": "Observed effect (% infection)", "setting": "Septoria tritici; 4 mg/l", "value": 20, "unit": "%"}]}
{"smiles": "COc1cc(C)c(C(=O)c2c(OC)ccc(Br)c2C)c(OC)c1OC", "note": "[metrafenone, 3′-bromo-2,3,4,6′-tetramethoxy-2′,6-dimethylbenzophenone, reference compound]", "values": [{"measurement": "Observed effect (% infection)", "setting": "Puccinia recondita; 4 mg/l", "value": 0, "unit": "%"}]}
{"smiles": "COC(=O)N(OC)c1ccccc1COc1ccn(-c2ccc(Cl)cc2)n1", "note": "[pyraclostrobin, methyl N-{2-[1-(4-chlorophenyl)-1H-pyrazol-3-yloxymethyl]phenyl}(N-methoxy)carbamate, reference compound]", "values": [{"measurement": "Observed effect (% infection)", "setting": "[1]", "value": 33, "unit": "%"}, {"measurement": "Observed effect (% infection)", "setting": "Phakopsora pachyrhizi", "value": 29, "unit": "%"}]}
